The target in one assay is PI3Kalpha (Homo sapiens (Human), UniProt P42336). The assay is described as follows: HTRF PI3K biochemical assay, alpha isoform (selectivity versus delta). The settings on record: relative ratio PI3K-alpha IC50 value / PI3K-delta IC50 value. The essentials: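 Recombinant human PI3Kα (0.5 nM) preincubated 15 min with compound, then reacted 1 h at room temperature with 100 uM ATP and 5 uM PIP2. PIP3 formation detected by HTRF competition with biotin-PIP3 for GST-GRP1 PH domain (Eu/APC, 665/620 nm); product lowers signal.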

In another assay the target is PI3Kdelta (Homo sapiens (Human), UniProt O00329). The assay is described as follows: HTRF PI3K biochemical assay, delta isoform. The settings on record: 0.3 nM enzyme, 100 uM ATP, 5 uM PIP2, form screened per table. The method, boiled down:
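PI3Kδ at 0.3 nM preincubated 15 min with compound, then reacted 1 h at room temperature with 100 uM ATP and 5 uM PIP2. PIP3 product detected by competitive HTRF displacing biotin-PIP3 from GST-GRP1 PH domain, so signal falls with activity. 10-point 3-fold dose response.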
On the technique in general: Time-resolved FRET reads energy transfer from a long-lived donor to a nearby acceptor.

Chain of PI3Kalpha (P42336 whole entry, the tested form may be a part, canonical isoform): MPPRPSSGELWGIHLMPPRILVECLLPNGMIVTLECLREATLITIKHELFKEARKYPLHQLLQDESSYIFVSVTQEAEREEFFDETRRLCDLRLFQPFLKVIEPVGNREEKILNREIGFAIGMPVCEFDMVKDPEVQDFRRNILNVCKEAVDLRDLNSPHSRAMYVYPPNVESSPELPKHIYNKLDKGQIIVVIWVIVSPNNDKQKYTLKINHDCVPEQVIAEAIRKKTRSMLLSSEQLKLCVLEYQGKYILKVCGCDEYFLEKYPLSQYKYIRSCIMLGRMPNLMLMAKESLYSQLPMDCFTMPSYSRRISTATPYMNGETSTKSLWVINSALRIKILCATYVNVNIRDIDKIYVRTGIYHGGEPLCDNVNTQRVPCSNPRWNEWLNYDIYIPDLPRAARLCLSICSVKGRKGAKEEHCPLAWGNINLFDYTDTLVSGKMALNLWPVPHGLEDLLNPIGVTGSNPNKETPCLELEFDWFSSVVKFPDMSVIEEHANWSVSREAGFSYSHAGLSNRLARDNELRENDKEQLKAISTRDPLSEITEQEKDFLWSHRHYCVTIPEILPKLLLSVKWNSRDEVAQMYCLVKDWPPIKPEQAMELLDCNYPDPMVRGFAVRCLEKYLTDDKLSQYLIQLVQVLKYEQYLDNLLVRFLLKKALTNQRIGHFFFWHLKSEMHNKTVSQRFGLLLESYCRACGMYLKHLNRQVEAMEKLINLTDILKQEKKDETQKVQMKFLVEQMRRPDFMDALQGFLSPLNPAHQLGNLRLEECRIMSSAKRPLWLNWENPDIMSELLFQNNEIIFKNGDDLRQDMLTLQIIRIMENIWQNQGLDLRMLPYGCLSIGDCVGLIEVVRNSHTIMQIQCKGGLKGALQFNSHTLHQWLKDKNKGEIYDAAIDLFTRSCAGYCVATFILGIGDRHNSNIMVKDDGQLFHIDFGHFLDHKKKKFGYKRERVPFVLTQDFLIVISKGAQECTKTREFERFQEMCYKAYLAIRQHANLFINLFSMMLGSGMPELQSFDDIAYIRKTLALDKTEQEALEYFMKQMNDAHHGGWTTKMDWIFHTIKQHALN
Chain of PI3Kalpha (P27986 whole entry partner, the tested form may be a part, canonical isoform): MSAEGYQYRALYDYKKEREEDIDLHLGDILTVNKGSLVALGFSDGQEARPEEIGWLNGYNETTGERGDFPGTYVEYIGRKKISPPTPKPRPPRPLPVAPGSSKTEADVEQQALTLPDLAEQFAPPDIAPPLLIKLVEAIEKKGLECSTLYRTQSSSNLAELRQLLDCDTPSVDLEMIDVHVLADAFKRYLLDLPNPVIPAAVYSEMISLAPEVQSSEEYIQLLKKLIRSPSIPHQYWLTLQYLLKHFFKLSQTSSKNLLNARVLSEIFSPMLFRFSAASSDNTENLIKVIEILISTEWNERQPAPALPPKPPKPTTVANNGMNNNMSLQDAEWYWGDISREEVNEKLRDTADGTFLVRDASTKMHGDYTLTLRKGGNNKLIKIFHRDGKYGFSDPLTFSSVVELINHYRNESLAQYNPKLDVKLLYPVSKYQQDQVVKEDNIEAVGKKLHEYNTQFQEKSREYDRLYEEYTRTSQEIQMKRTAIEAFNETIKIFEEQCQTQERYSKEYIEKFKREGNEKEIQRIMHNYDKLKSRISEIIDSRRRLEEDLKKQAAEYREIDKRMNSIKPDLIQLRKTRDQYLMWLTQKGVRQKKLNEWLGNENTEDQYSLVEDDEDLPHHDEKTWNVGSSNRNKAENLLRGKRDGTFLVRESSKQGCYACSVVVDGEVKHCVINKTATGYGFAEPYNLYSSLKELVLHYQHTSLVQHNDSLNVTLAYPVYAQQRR
Chain of PI3Kdelta (O00329 whole entry, the tested form may be a part, canonical isoform): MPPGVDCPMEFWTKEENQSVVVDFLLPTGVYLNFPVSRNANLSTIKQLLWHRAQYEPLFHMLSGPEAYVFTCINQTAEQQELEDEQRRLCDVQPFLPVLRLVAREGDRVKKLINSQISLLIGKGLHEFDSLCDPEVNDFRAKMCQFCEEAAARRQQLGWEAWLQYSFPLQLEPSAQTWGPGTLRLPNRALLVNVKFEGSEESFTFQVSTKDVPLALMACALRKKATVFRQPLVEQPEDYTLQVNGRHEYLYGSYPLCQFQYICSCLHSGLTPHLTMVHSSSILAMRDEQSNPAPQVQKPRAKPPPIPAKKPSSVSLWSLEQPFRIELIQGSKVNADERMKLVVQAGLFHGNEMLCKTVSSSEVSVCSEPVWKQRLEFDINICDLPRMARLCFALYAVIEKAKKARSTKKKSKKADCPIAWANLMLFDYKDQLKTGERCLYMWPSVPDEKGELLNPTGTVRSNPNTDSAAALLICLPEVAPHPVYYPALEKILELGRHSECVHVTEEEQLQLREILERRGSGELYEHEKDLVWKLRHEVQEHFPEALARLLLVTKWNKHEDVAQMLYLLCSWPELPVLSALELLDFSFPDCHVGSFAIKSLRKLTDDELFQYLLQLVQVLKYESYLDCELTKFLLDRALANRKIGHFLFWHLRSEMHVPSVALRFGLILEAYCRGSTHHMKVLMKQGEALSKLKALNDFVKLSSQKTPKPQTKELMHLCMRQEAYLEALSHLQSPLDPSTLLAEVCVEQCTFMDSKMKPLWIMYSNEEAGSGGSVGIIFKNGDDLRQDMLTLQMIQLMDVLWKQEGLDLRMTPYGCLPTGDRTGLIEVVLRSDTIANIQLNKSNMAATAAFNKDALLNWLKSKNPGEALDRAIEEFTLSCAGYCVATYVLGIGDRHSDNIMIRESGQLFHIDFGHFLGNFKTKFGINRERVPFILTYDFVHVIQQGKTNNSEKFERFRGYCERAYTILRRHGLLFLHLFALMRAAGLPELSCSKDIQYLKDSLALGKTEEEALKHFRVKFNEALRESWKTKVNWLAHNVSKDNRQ
Chain of PI3Kdelta (P27986 whole entry partner, the tested form may be a part, canonical isoform): as the sequence (P27986 whole entry partner, the tested form may be a part, canonical isoform) above

As for `Cc1c(-c2ncc(C#N)c(N3CCN(C(=O)C4CC4)[C@H](C)C3)n2)cnn1C` [Compound 6-29, 4-[(3R)-4-(cyclopropylcarbonyl)-3-methylpiperazin-1-yl]-2-(1,5-dimethyl-1H-pyrazol-4-yl)pyrimidine-5-carbonitrile], the “Selectivity versus PI3Kalpha” value on PI3Kalpha is given as greater than 10. In addition, the IC50 at PI3Kdelta was determined as 81 nM.
In the case of `C[C@@H]1CN(c2nc(-c3cnn(C(F)F)c3)ncc2C#N)CCN1C(=O)C1CC1` [Compound 6-30, 4-[(3R)-4-(cyclopropylcarbonyl)-3-methylpiperazin-1-yl]-2-[1-(difluoromethyl)-1H-pyrazol-4-yl]pyrimidine-5-carbonitrile], the “Selectivity versus PI3Kalpha” value at PI3Kalpha is recorded as greater than 10. This molecule also gave a concentration for half-maximal inhibition (IC50) at PI3Kdelta of 330 nM.

What is called IC50 is the concentration that gives 50% inhibition. Low values mean inhibition by little substance, high ones a need for much substance.
